From US20240315993A1, “ANTIPARASITIC COMPOUNDS” (Intervet Inc., priority 2021, published 2024)
Read-outs that look alike come from different tables or passages of the source.

Assays:
Rhipicephalus microplus = test: Cattle - efficacy against one-host tick; assay type: in vivo
Procedure, shortened: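 Cattle infested whole-body with up to 3000 R. microplus larvae two or three times weekly around Day 0, then given 1 mg/kg subcutaneously or topically (spray or pour-on); controls got excipients only. Engorged females dropping were counted daily; efficacy by ADEQ per WAAVP guidelines, onset/duration as first/last day ≥80%.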

[1] = system: juvenile soft ticks (Ornithodoros moubata); test: Guinea pig - efficacy against argaside tick; assay type: in vivo
Procedure, shortened: (§1)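 Guinea pigs given 5 mg/kg test compound orally (gavage) or s.c. in 10% DMF/emulsifier plus 90% water for injection, with local co-infestations of Ornithodoros moubata juveniles and Cimex lectularius at several post-treatment times. Engorged parasites scored dead/damaged about 24 h after collection; % inhibition versus pretreatment baseline by modified Schneider-Orelli formula.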

[2] = system: Rhipicephalus sanguineus or Haemaphysalis elliptica ticks; test: Dog - efficacy against ticks; assay type: in vivo; conditions: for efficacy against ticks in dogs (conclusion): 10 mg/kg; for therapeutic efficacy against ticks (active = efficacy ≥80 percent): D2; for active against ticks up to (efficacy ≥80 percent): repeated infestations
Description: (§2) Beagle dogs were infested (whole body) with 80 Ctenocephalides felis fleas and 50 Rhipicephalus sanguineus or Haemaphysalis elliptica ticks (sex ratio 1:1) two days before the treatment day (Day 0), and repeatedly thereafter. Dogs of treatment groups were treated with 10 mg/kg bodyweight of a test compound orally (compound weighed in gelatin capsule), topically (spot-on, DMA 92%/DEET 8%) or subcutaneously (PEG 200 90%/water for injection 10%). Dogs of the negative control group received only an empty gelatin capsule orally and the spot-on formulation excipients topically.
(§3) Compounds with efficacy ≥80 percent were found active.

[3] = system: Copepodids (juvenile sea lice stage of Lepeophtheirus salmonis); test: Juvenile sea lice contact assay; conditions: Lepeophtheirus salmonis, read-out: Sea lice inhibition (% of dead+damaged copepodids)
Description: Copepodids (juvenile sea lice stage of Lepeophtheirus salmonis) were exposed to seawater spiked with declining concentrations of a test compound (dissolved in a DMSO sea-water mixture). Sea lice inhibition (% of dead+damaged copepodids) was assessed after approximately 24 hours of continuous exposure. The vitality of used parasites was confirmed in a negative (solvent) control group.

Dermacenter variabilis = test: Cattle - efficacy against multi-host ticks (Dermacenter variabilis); assay type: in vivo; conditions: for effective in treating existing tick infestations: 5 mg/kg, both administration routes (topical, subcutaneous)
Description: Cattle were treated subcutaneously or topically (pour-on) at a dose of 5 mg/kg bodyweight of a test compound (Day 0). As subcutaneous formulation NMP 60%/PEG300 40% was used, and as pour-on formulation DMA 92%/DEET 8% was used. Cattle of the negative control group received only the formulation excipients of both formulations (SC, pour-on).
Cattle were locally infested with 30 to 40 unfed adult ticks each of Rhipicephalus appendiculatus and Dermacenter variabilis (for both species sex ratio 1:1), by placing the ticks in an ear sleeve (R. appendiculatus) or a stockinet patch attached to the body side (D. variabilis) once before treatment, and at different time points after treatment. Free (i.e., non-attached ticks) were removed from ear sleeves/stockinet patches two days after each infestation and were excluded from the efficacy calculation.
as §3

Lepeophtheirus salmonis = test: Salmon - in vivo efficacy against sea lice using gavage administration; conditions: po, 168 h
[4] = system: Ctenocephalides felis fleas; test: Dog - efficacy against fleas; assay type: in vivo; conditions: for efficacy against fleas in dogs (conclusion): 10 mg/kg; for therapeutic efficacy against fleas (active = efficacy ≥80 percent): D2
Description: as §2, §3

[5] = system: bed bugs (Cimex lectularius); test: Guinea pig - efficacy against bed bug; assay type: in vivo
Procedure, shortened: as §1

[6] = system: Mobile stages of sea lice (pre-adults, adults of Lepeophtheirus salmonis); test: Adult sea lice contact assay; conditions: read-out: EC50 (sea lice inhibition, dead+damaged)
Description: Mobile stages of sea lice (i.e., pre-adults, adults of Lepeophtheirus salmonis) were exposed to seawater spiked with declining concentrations of a test compound (dissolved in a PEG sea-water mixture). Sea lice inhibition (% of dead+damaged sea lice) was assessed after approximately 1 and 24 hours of continuous exposure in comparison to a negative (solvent) control group.

[7] = 1 mg/kg topical (Compound 4: spray solution; others: DMA 92%/DEET 8% pour-on)
[8] = 5 mg/kg subcutaneous, after 7 days
[9] = 5 mg/kg subcutaneous, after 10 days
[10] = 5 mg/kg subcutaneous, re-infested after 7 days
[11] = 5 mg/kg subcutaneous, re-infested after 14 days
[12] = 5 mg/kg subcutaneous, re-infested after 21 days
[13] = 5 mg/kg subcutaneous, re-infested after 28 days
[14] = 5 mg/kg subcutaneous, therapeutic, Day 2
[15] = 5 mg/kg topical pour-on, re-infested after 7 days
[16] = 5 mg/kg topical pour-on, re-infested after 14 days
[17] = 5 mg/kg topical pour-on, re-infested after 21 days
[18] = 5 mg/kg topical pour-on, therapeutic, Day 2
[19] = 1 mg/kg pour on in Imwitor 988+Miglyol 840
[20] = 5 mg/kg, at least until Day 10, both administration routes (oral, subcutaneous)

## O=C(Nc1ccc(F)cc1F)c1cc(NC(=O)[C@H]2[C@H](c3ccc(F)c(Cl)c3)C2(Cl)Cl)ccc1Cl [Compound 197]
Rhipicephalus microplus; 1 mg/kg subcutaneous
  duration of efficacy (last Day with efficacy ≥80 percent): ≥ 120 days
  onset of efficacy (first Day with efficacy ≥80 percent): 3 days
Rhipicephalus microplus; [7]
  duration of efficacy (last Day with efficacy ≥80 percent): 47 days
  onset of efficacy (first Day with efficacy ≥80 percent): 2 days
[1]; 5 mg/kg oral, Day 0
  activity against tick nymphs (≥80% inhibition, killed+damaged): immediate activity
[1]; 5 mg/kg oral, after 7 days
  activity against tick nymphs (≥80% inhibition, killed+damaged): activity
[1]; 5 mg/kg subcutaneous, Day 0
  activity against tick nymphs (≥80% inhibition, killed+damaged): immediate activity
[1]; [8]
  activity against tick nymphs (≥80% inhibition, killed+damaged): activity
[1]; [9]
  activity against tick nymphs (≥80% inhibition, killed+damaged): activity
[1]; 5 mg/kg, ticks and bed bugs
  duration of efficacy, subcutaneous compared with oral administration: longer duration of efficacy
[2]
  efficacy against ticks in dogs (conclusion): therapeutic efficacy
[2]; 10 mg/kg oral
  therapeutic efficacy against ticks (active = efficacy ≥80 percent): active
[2]; 10 mg/kg topical spot-on
  active against ticks up to (efficacy ≥80 percent): 70/72
[3]; 24 h
  inhibition at 0.001 µM: 100%
Dermacenter variabilis; [10]
  efficacy ≥80 percent against Dermacenter variabilis: prophylactic efficacy
Dermacenter variabilis; [11]
  efficacy ≥80 percent against Dermacenter variabilis: prophylactic efficacy
Dermacenter variabilis; [12]
  efficacy ≥80 percent against Dermacenter variabilis: prophylactic efficacy
Dermacenter variabilis; [13]
  efficacy ≥80 percent against Dermacenter variabilis: prophylactic efficacy
Dermacenter variabilis; [14]
  efficacy ≥80 percent against Dermacenter variabilis: therapeutic efficacy
Dermacenter variabilis; [15]
  efficacy ≥80 percent against Dermacenter variabilis: prophylactic efficacy
Dermacenter variabilis; [16]
  efficacy ≥80 percent against Dermacenter variabilis: prophylactic efficacy
Dermacenter variabilis; [17]
  efficacy ≥80 percent against Dermacenter variabilis: prophylactic efficacy
Dermacenter variabilis; [18]
  efficacy ≥80 percent against Dermacenter variabilis: therapeutic efficacy
Dermacenter variabilis
  effective in treating existing tick infestations: 100%
Lepeophtheirus salmonis; read-out: therapeutic efficacy against (pre-)adult sea lice (% reduction vs control)
  inhibition in vivo at 5 mg/kg: 80%
[4]
  efficacy against fleas in dogs (conclusion): therapeutic efficacy
[4]; 10 mg/kg oral
  therapeutic efficacy against fleas (active = efficacy ≥80 percent): active
[4]; 10 mg/kg topical spot-on
  therapeutic efficacy against fleas (active = efficacy ≥80 percent): active
[5]; 5 mg/kg oral, Day 0
  activity against bed bugs (≥80% inhibition, killed+damaged): immediate activity
[5]; 5 mg/kg oral, after 7 days
  activity against bed bugs (≥80% inhibition, killed+damaged): activity
[5]; 5 mg/kg subcutaneous, Day 0
  activity against bed bugs (≥80% inhibition, killed+damaged): immediate activity
[5]; [8]
  activity against bed bugs (≥80% inhibition, killed+damaged): activity
[5]; [9]
  activity against bed bugs (≥80% inhibition, killed+damaged): activity
[6]
  EC50: 10 to 25 nM

## O=C(Nc1ncc(F)cc1F)c1cc(NC(=O)[C@H]2[C@H](c3cc(Cl)cc(Cl)c3)C2(Cl)Cl)ccc1Cl [Compound 453]
Rhipicephalus microplus; [19]
  duration of efficacy (last Day with efficacy ≥80 percent): 77 days
  onset of efficacy (first Day with efficacy ≥80 percent): 1 days
Rhipicephalus microplus; 1 mg/kg pour on in Miglyol 840
  duration of efficacy (last Day with efficacy ≥80 percent): 84 days
  onset of efficacy (first Day with efficacy ≥80 percent): 2 days
Rhipicephalus microplus; 1 mg/kg subcutaneous
  duration of efficacy (last Day with efficacy ≥80 percent): 82 days
  onset of efficacy (first Day with efficacy ≥80 percent): 3 days
Rhipicephalus microplus; [7]
  duration of efficacy (last Day with efficacy ≥80 percent): 63 days
  onset of efficacy (first Day with efficacy ≥80 percent): 3 days
[1]; 5 mg/kg oral, Day 0
  activity against tick nymphs (≥80% inhibition, killed+damaged): immediate activity
[1]; 5 mg/kg oral, after 7 days
  activity against tick nymphs (≥80% inhibition, killed+damaged): activity
[1]; 5 mg/kg oral, after 10 days
  activity against tick nymphs (≥80% inhibition, killed+damaged): activity
[1]; 5 mg/kg subcutaneous, Day 0
  activity against tick nymphs (≥80% inhibition, killed+damaged): immediate activity
[1]; [8]
  activity against tick nymphs (≥80% inhibition, killed+damaged): activity
[1]; [9]
  activity against tick nymphs (≥80% inhibition, killed+damaged): activity
[1]; [20]
  effective to control ticks: 100%
[2]
  efficacy against ticks in dogs (conclusion): therapeutic efficacy
[2]; 10 mg/kg oral
  therapeutic efficacy against ticks (active = efficacy ≥80 percent): active
[2]; 10 mg/kg topical spot-on
  therapeutic efficacy against ticks (active = efficacy ≥80 percent): active
  active against ticks up to (efficacy ≥80 percent): 70/72
[3]; 1 nM in seawater, ~24 h
  inhibition at 0.001 µM: 100%
Dermacenter variabilis; [10]
  efficacy ≥80 percent against Dermacenter variabilis: prophylactic efficacy
Dermacenter variabilis; [11]
  efficacy ≥80 percent against Dermacenter variabilis: prophylactic efficacy
Dermacenter variabilis; [12]
  efficacy ≥80 percent against Dermacenter variabilis: prophylactic efficacy
Dermacenter variabilis; [13]
  efficacy ≥80 percent against Dermacenter variabilis: prophylactic efficacy
Dermacenter variabilis; 5 mg/kg subcutaneous, re-infested after 35 days
  efficacy ≥80 percent against Dermacenter variabilis: prophylactic efficacy
Dermacenter variabilis; [14]
  efficacy ≥80 percent against Dermacenter variabilis: therapeutic efficacy
Dermacenter variabilis; [15]
  efficacy ≥80 percent against Dermacenter variabilis: prophylactic efficacy
Dermacenter variabilis; [16]
  efficacy ≥80 percent against Dermacenter variabilis: prophylactic efficacy
Dermacenter variabilis; [17]
  efficacy ≥80 percent against Dermacenter variabilis: prophylactic efficacy
Dermacenter variabilis; 5 mg/kg topical pour-on, re-infested after 28 days
  efficacy ≥80 percent against Dermacenter variabilis: prophylactic efficacy
Dermacenter variabilis; 5 mg/kg topical pour-on, re-infested after 35 days
  efficacy ≥80 percent against Dermacenter variabilis: prophylactic efficacy
Dermacenter variabilis; [18]
  efficacy ≥80 percent against Dermacenter variabilis: therapeutic efficacy
Dermacenter variabilis
  effective in treating existing tick infestations: 100%
Lepeophtheirus salmonis; read-out: therapeutic efficacy against (pre-)adult sea lice (% reduction vs control), salmon, 5 mg/kg once by gavage, day -28 infestation, counted day 7
  inhibition in vivo at 5 mg/kg: 100%
[4]
  efficacy against fleas in dogs (conclusion): therapeutic efficacy
[4]; 10 mg/kg oral
  therapeutic efficacy against fleas (active = efficacy ≥80 percent): active
[4]; 10 mg/kg topical spot-on
  therapeutic efficacy against fleas (active = efficacy ≥80 percent): active
[5]; 5 mg/kg oral, Day 0
  activity against bed bugs (≥80% inhibition, killed+damaged): immediate activity
[5]; 5 mg/kg oral, after 7 days
  activity against bed bugs (≥80% inhibition, killed+damaged): activity
[5]; 5 mg/kg oral, after 10 days
  activity against bed bugs (≥80% inhibition, killed+damaged): activity
[5]; 5 mg/kg subcutaneous, Day 0
  activity against bed bugs (≥80% inhibition, killed+damaged): immediate activity
[5]; [8]
  activity against bed bugs (≥80% inhibition, killed+damaged): activity
[5]; [9]
  activity against bed bugs (≥80% inhibition, killed+damaged): activity
[5]; [20]
  effective to control bed bugs: 100%
[6]; pre-adults/adults, assessed after ~1 and 24 h
  EC50: ≤ 10 nM
